Assay results taken from ChEMBL document CHEMBL5678811 (Invest New Drugs, 2014).
The source made the active and inactive calls. The rule behind the calls is not given here.

Legend:
[1] = Toxicity in human COLO 205 cells xenografted CD1 nu/nu mouse assessed as decrease in red cell mass at 50 mg/kg, po administered daily via gavage for 2 cycles of 3 weeks on/1 week rest and measured on day 41 to 69 by hematological analysis; format: organism-based; conditions: in vivo, time 41-69 day
Mus musculus [2] = species: Mus musculus; conditions: CD1, dose 50.0 mg/kg, route po, time 22.0 day
COLO 205 [3] = conditions: Mus musculus, CD1, dose 25-50 mg/kg, route po
MV4-11 [4] = assay: Cell cycle arrest in human MV4-11 cells assessed as accumulation of cells at G1-phase at 0.08 uM measured after 24 hrs by propidium iodide staining based flow cytometry (reference value: 61.42%); format: functional
COLO 205 [5] = conditions: Homo sapiens, dose 50.0 mg/kg, route po, time 3.0 weeks
Description: Antitumor activity against human COLO 205 cells xenografted in CD1 nu/nu mouse assessed as tumor growth inhibition at 50 mg/kg, po administered daily via gavage for 2 cycles of 3 weeks on/1 week rest

MV4-11 [6] = assay: Cell cycle arrest in human MV4-11 cells assessed as accumulation of cells at S-phase at 5 uM measured after 24 hrs by propidium iodide staining based flow cytometry (reference value: 23.35%); format: functional
MV4-11 [7] = assay: Cell cycle arrest in human MV4-11 cells assessed as accumulation of cells at G1-phase at 0.32 uM measured after 24 hrs by propidium iodide staining based flow cytometry (reference value: 61.42%); format: functional
MV4-11 [8] = assay: Cell cycle arrest in human MV4-11 cells assessed as accumulation of cells at G2/M-phase at 0.32 uM measured after 24 hrs by propidium iodide staining based flow cytometry (reference value: 15.23%); format: functional
MDA-MB-468 = assay: Cell cycle arrest in human MDA-MB-468 cells assessed as accumulation of cells at G2/M-phase at 2.5 uM measured after 24 hrs by propidium iodide staining based flow cytometry (reference value: 26.49%); format: functional
MV4-11 [9] = assay: Cell cycle arrest in human MV4-11 cells assessed as accumulation of cells at G1-phase at 5 uM measured after 24 hrs by propidium iodide staining based flow cytometry (reference value: 61.42%); format: functional
MV4-11 [10] = assay: Cell cycle arrest in human MV4-11 cells assessed as accumulation of cells at S-phase at 0.08 uM measured after 24 hrs by propidium iodide staining based flow cytometry (reference value: 23.35%); format: functional
Mus musculus [11] = species: Mus musculus; conditions: CD1, dose 50.0 mg/kg, route po, time 17.0 day
[12] = system: T1, Receptor-type tyrosine-protein kinase FLT3 (Homo sapiens), P36888 [D835Y]; conditions: Sf21, dose 200.0 nM
T1 sequence (whole entry): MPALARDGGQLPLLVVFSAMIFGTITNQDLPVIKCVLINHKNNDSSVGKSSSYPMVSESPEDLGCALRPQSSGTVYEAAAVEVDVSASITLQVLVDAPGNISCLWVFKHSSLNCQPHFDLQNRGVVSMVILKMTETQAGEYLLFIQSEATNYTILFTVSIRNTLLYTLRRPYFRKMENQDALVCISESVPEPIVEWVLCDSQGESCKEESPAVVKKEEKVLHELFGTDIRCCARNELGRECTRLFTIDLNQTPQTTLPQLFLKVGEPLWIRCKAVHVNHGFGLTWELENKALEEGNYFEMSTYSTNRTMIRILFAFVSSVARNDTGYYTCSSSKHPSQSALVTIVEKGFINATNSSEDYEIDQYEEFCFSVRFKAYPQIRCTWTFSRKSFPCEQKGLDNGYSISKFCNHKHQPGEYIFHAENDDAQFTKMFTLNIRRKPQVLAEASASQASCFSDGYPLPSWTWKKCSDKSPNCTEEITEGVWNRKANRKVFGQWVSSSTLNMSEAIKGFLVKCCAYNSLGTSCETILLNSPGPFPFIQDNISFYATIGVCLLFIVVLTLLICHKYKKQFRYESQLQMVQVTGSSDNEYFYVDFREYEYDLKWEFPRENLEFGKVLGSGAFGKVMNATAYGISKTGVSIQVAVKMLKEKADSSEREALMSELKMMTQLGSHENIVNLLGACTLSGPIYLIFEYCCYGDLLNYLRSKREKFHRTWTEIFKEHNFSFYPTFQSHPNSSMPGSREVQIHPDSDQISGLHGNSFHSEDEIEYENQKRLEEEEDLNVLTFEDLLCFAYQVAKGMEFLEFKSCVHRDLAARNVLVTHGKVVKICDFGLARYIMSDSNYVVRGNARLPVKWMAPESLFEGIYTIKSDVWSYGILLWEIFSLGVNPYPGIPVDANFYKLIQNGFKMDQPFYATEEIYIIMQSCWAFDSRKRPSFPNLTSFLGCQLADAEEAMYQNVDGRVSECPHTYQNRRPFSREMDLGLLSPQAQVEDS

COLO 205 [13] = conditions: Homo sapiens, dose 50.0 mg/kg, route po, time 56.0 day
Calu-6 [14] = conditions: Homo sapiens, dose 50.0 mg/kg, route po, time 16.0 day
MV4-11 [15] = assay: Cell cycle arrest in human MV4-11 cells assessed as accumulation of cells at S-phase at 1.25 uM measured after 24 hrs by propidium iodide staining based flow cytometry (reference value: 23.35%); format: functional
[16] = biological target: Cyclin-dependent kinase 5/CDK5 activator 1 (Homo sapiens) (UniProt Q00535+Q15078); conditions: Sf21, dose 200.0 nM
Description: Inhibition of recombinant human full-length N-terminal His6-tagged cdk5/N-terminal GST-tagged p35 expressed in baculovirus infected Sf21 cells at 200 nM using histone H1 as substrate relative to control

MDA-MB-231 = assay: Cell cycle arrest in human MDA-MB-231 cells assessed as accumulation of cells at S-phase at 0.16 uM measured after 24 hrs by propidium iodide staining based flow cytometry (reference value: 38.27%); format: functional
MV4-11 [17] = assay: Cell cycle arrest in human MV4-11 cells assessed as accumulation of cells at S-phase at […] measured after 24 hrs by propidium iodide staining based flow cytometry (reference value: 23.35%); format: functional; conditions: dose 0.625 µM
Mus musculus [18] = species: Mus musculus; conditions: CD1, dose 50.0 mg/kg, route po, time 17.0 day; remark: listed apart in the source
Calu-6 [19] = conditions: Homo sapiens, dose 50.0 mg/kg, route po, time 21.0 day
COLO 205 [20] = conditions: Mus musculus, CD1, dose 50.0 mg/kg, route po
COLO 205 [21] = conditions: Mus musculus, CD1, dose 50.0 mg/kg, route po; remark: listed apart in the source
MV4-11 [22] = assay: Cell cycle arrest in human MV4-11 cells assessed as accumulation of cells at G1-phase at […] measured after 24 hrs by propidium iodide staining based flow cytometry (reference value: 61.42%); format: functional; conditions: dose 0.625 µM
[23] = Toxicity in human COLO 205 cells xenografted CD1 nu/nu mouse assessed as body weight loss at 50 mg/kg, po administered daily via gavage for 2 cycles of 3 weeks on/1 week rest; format: organism-based; conditions: in vivo
MV4-11 [24] = assay: Cell cycle arrest in human MV4-11 cells assessed as accumulation of cells at G2/M-phase at 5 uM measured after 24 hrs by propidium iodide staining based flow cytometry (reference value: 15.23%); format: functional

Sequence of Cyclin-dependent kinase 5/CDK5 activator 1 (Homo sapiens) (Q00535 whole entry): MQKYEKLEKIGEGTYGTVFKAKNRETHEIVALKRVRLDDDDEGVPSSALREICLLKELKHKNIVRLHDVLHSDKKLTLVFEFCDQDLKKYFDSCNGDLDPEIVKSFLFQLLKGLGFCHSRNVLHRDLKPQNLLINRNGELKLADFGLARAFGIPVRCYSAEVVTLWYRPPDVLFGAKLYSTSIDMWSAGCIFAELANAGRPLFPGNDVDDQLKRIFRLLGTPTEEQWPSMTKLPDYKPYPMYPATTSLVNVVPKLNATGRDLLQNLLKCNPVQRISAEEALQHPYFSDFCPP
Sequence of Cyclin-dependent kinase 5/CDK5 activator 1 (Homo sapiens) (Q15078 99-307 partner limits assumed): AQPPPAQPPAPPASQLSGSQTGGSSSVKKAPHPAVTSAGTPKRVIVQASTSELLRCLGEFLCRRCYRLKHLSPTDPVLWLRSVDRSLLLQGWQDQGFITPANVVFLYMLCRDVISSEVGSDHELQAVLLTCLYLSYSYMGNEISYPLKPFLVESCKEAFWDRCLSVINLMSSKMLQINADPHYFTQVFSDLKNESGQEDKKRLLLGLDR

With `CCN1CCN(Cc2ccc(Nc3ncc(F)c(-c4cc(F)c5nc(C)n(C(C)C)c5c4)n3)nc2)CC1` [ABEMACICLIB] the Activity [1] was “Non-Toxic”, the inhibition (Mus musculus [2]) was “inactive” and the inhibition (COLO 205 [3]) was “Dose-Dependent Effect”. For the same compound, the Activity (MV4-11 [4]) was 89.44%, the TGI (COLO 205 [5]) was “Active” and the Activity (MV4-11 [6]) was 3.9%. It also gave an Activity (MV4-11 [7]) of 95.5%, an Activity (MV4-11 [8]) of 1.82% and an Activity (MDA-MB-468) of 28.82%. The Activity (MV4-11 [9]) was 95.56%, the Activity (MV4-11 [10]) was 8.59% and the inhibition (Mus musculus [11]) was “Active”. The inhibition [12] was > 90%, the TGI (COLO 205 [13]) was “Active” and the TGI (Calu-6 [14]) was “Active”. The Activity (MV4-11 [15]) was 4.18%, the inhibition [16] was > 90% and the Activity (MDA-MB-231) was 17.12%. For the same compound, the Activity (MV4-11 [17]) was 3.6%, the inhibition (Mus musculus [18]) was “inactive” and the TGI (Calu-6 [19]) was “Active”. For the same compound, the inhibition (COLO 205 [20]) was “inactive”, the inhibition (COLO 205 [21]) was “Active” and the Activity (MV4-11 [22]) was 94.63%. The Activity [23] was “Non-Toxic” and the Activity (MV4-11 [24]) was 0.54%.
